Values of other authors as cited in article PMC11609630 (Cancer Discovery, 2024).

System: patients with TNBC

sacituzumab govitecan: TROP2-targeting antibody–drug conjugate
gain in ORR compared with chemotherapy (cohort of relapsed patients with TNBC): 30%
patients experiencing adverse events of grade 3 or higher (such as neutropenia and leukopenia): more than 50%
